Measured values: ChEMBL document CHEMBL1149372, “Discovery of novel and potent thiazoloquinazolines as selective Aurora A and B kinase inhibitors” (J Med Chem, 2006)
Converted amounts (≈) assume the structure as drawn.

Key:
[1] = Solubility in Tris buffer at pH 9.0, 25 degC; format: physicochemical
Mus musculus = species on record: Mus musculus; test: Conversion to parent, N-(3-fluorophenyl)-2-{2-[(7-{3 -[4-(hydroxymethyl)piperidin-1 -yl]propoxy}-6-methoxyquinazol in-4-yl)amino]-1,3-thiazol-5-y l}acetamide in mouse plasma; format: ADME, organism-based; conditions: in vivo
Aurora kinase A = molecular target: T1, Aurora kinase A (Homo sapiens, UniProt O14965)
T1 sequence (O14965 whole entry): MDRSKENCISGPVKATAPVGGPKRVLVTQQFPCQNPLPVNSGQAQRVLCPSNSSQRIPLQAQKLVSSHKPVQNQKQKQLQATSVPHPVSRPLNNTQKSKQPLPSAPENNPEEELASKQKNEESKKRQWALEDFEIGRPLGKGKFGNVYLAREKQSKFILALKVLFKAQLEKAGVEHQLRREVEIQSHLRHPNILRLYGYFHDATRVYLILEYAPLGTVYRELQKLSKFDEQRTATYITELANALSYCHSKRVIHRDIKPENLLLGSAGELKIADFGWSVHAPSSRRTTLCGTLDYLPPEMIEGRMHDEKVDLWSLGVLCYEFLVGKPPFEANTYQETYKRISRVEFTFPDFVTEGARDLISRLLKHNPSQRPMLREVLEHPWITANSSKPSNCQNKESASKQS
Description: Inhibition of Aurora A kinase activity

SW-620 [2] = test: Inhibition of phosphorylation of histone H3 in human SW620 cells; format: functional, cell-based
Aurora kinase B = Aurora kinase B (Homo sapiens, UniProt Q96GD4); test: Inhibition of Aurora-B immunoprecipitated from mitotic cells; format: functional
[3] = Inhibition of Aurora B-INCENP complex activity
[4] = Solubility in phosphate buffer at pH 7.4, 25 degC; format: physicochemical
[5] = Half life in rat; format: ADME, organism-based; conditions: in vivo
[6] = molecular target: Tyrosine-protein kinase CSK (Homo sapiens, UniProt P41240); test: Inhibitory activity against CSK
[7] = molecular target: Vascular endothelial growth factor receptor 2 (Homo sapiens, UniProt P35968); test: Inhibitory activity against KDR
[8] = molecular target: cAMP-dependent protein kinase (PKA) (Homo sapiens, UniProt P22694+P17612+P22612); test: Inhibitory activity against PKA; format: protein assay
[9] = molecular target: T2, Tyrosine-protein kinase JAK3 (Homo sapiens, UniProt P52333); test: Inhibitory activity against JAK3
T2 sequence (P52333 whole entry): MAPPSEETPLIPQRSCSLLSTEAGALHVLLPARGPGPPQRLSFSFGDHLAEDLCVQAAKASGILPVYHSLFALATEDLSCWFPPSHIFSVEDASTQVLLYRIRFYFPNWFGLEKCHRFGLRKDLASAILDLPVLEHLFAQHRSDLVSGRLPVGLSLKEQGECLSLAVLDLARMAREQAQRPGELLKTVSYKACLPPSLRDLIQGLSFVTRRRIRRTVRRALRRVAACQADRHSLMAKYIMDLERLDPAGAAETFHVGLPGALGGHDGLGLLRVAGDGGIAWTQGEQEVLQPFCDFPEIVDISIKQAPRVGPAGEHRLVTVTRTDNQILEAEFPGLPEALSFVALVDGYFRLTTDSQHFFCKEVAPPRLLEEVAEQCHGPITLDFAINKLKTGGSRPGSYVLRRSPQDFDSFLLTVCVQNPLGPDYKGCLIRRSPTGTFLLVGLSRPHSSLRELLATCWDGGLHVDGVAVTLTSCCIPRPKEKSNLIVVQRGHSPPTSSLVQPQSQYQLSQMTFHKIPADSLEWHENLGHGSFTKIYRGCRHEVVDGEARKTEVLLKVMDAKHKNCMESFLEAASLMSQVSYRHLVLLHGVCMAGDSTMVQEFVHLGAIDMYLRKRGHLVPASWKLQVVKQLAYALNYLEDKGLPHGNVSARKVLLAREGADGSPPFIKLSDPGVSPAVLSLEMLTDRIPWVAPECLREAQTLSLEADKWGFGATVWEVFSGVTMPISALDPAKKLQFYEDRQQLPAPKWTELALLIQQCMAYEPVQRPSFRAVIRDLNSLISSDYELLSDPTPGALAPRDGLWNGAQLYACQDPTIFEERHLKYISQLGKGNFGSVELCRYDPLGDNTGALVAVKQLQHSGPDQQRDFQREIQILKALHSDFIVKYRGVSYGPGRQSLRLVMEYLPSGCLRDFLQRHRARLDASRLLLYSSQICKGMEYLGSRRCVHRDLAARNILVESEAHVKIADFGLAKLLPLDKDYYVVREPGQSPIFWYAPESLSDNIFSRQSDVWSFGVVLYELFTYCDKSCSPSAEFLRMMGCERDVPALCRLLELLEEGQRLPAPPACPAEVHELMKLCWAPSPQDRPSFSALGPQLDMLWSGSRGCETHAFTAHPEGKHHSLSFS

SW-620 [10] = test: Antiproliferative activity against human colorectal carcinoma SW620 cells
[11] = molecular target: Cyclin-dependent kinase 2 (Homo sapiens, UniProt P24941); test: Inhibitory activity against CDK2
Focal adhesion kinase 1 = Focal adhesion kinase 1 (Homo sapiens, UniProt Q05397); test: Inhibitory activity against FAK
[12] = Distribution coefficient of the compound, log D at pH 7.4; format: physicochemical; conditions: octanol/water
[13] = molecular target: Mitogen-activated protein kinase 14 (Homo sapiens, UniProt Q16539); test: Inhibitory activity against p38-alpha MAPK
[14] = Free drug level in rat serum albumin; format: ADME, organism-based
[15] = molecular target: Mitogen-activated protein kinase 8 (Homo sapiens, UniProt P45983); test: Inhibitory activity against JNK1alpha
[16] = Volume of distribution in rat; format: ADME, organism-based; conditions: in vivo, read-out: Vdss
[17] = Clearance in rat; format: ADME, organism-based; conditions: in vivo
[18] = molecular target: Fibroblast growth factor receptor (Homo sapiens, UniProt P22607+P11362+P22455+P21802); test: Inhibitory activity against FGFR; format: protein assay
[19] = molecular target: Proto-oncogene tyrosine-protein kinase Src (Homo sapiens, UniProt P12931); test: Inhibitory activity against SRC
[20] = molecular target: Insulin-like growth factor 1 receptor (Homo sapiens, UniProt P08069); test: Inhibitory activity against IGFR
Sequence of Insulin-like growth factor 1 receptor (P08069 31-736 limits assumed): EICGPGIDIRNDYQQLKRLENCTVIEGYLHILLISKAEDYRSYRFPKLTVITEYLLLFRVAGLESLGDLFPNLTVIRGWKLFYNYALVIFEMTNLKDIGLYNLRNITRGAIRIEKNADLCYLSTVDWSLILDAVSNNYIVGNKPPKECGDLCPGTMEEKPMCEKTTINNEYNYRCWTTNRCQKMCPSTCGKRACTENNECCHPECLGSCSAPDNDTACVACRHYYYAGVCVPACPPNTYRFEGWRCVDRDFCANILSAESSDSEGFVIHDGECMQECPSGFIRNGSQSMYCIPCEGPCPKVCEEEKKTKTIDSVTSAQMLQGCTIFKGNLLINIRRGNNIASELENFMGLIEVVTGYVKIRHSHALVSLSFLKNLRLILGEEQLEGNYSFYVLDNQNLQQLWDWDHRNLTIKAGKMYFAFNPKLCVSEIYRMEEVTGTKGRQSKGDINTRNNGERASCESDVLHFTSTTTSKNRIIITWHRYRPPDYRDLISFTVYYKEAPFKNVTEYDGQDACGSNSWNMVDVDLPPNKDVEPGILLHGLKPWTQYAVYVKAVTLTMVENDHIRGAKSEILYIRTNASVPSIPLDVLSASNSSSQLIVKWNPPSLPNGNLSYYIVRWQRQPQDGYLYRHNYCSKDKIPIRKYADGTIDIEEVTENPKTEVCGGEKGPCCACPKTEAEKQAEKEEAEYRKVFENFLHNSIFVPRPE
Sequence of Insulin-like growth factor 1 receptor (P08069 741-1367 limits assumed): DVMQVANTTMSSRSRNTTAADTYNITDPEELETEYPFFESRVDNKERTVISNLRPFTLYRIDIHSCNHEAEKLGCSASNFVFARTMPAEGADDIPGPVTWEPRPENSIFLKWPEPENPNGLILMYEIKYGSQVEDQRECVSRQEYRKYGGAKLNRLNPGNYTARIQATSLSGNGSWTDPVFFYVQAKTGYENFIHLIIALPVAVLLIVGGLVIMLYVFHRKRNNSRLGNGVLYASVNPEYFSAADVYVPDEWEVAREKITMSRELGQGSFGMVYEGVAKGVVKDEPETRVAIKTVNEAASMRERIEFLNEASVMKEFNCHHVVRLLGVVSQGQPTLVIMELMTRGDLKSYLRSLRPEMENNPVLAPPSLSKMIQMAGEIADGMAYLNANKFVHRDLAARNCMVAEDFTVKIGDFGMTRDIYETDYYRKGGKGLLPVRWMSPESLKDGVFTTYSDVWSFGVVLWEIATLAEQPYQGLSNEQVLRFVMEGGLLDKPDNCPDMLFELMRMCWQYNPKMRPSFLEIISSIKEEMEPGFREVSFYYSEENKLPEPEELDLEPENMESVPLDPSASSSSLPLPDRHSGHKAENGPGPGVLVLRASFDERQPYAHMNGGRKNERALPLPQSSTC

Sequence of Mitogen-activated protein kinase 14 (Q16539 whole entry): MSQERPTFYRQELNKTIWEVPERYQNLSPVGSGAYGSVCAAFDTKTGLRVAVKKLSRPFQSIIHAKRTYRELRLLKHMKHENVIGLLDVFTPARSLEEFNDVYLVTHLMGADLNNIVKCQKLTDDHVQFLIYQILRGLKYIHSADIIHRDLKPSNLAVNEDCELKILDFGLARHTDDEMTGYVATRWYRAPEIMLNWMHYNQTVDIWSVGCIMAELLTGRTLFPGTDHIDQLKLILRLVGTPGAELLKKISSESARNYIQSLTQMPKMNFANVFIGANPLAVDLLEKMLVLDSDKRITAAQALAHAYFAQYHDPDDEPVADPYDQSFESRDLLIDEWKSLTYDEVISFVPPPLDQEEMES
Sequence of Proto-oncogene tyrosine-protein kinase Src (P12931 2-536 limits assumed): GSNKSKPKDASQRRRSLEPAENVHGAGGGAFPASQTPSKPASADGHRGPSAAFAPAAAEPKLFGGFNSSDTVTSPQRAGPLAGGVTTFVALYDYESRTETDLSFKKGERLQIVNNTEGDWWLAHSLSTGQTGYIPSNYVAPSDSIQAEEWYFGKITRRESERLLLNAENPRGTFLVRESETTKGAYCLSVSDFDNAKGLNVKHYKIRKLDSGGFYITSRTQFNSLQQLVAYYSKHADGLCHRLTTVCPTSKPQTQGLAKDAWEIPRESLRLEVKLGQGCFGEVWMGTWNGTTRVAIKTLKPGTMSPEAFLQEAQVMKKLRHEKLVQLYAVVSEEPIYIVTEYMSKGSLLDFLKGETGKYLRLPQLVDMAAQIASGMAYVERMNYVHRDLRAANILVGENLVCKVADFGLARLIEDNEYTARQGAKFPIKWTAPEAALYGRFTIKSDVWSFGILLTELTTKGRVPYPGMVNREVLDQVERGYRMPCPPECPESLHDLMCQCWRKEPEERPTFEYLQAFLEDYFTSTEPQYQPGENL
Sequence of Vascular endothelial growth factor receptor 2 (P35968 whole entry): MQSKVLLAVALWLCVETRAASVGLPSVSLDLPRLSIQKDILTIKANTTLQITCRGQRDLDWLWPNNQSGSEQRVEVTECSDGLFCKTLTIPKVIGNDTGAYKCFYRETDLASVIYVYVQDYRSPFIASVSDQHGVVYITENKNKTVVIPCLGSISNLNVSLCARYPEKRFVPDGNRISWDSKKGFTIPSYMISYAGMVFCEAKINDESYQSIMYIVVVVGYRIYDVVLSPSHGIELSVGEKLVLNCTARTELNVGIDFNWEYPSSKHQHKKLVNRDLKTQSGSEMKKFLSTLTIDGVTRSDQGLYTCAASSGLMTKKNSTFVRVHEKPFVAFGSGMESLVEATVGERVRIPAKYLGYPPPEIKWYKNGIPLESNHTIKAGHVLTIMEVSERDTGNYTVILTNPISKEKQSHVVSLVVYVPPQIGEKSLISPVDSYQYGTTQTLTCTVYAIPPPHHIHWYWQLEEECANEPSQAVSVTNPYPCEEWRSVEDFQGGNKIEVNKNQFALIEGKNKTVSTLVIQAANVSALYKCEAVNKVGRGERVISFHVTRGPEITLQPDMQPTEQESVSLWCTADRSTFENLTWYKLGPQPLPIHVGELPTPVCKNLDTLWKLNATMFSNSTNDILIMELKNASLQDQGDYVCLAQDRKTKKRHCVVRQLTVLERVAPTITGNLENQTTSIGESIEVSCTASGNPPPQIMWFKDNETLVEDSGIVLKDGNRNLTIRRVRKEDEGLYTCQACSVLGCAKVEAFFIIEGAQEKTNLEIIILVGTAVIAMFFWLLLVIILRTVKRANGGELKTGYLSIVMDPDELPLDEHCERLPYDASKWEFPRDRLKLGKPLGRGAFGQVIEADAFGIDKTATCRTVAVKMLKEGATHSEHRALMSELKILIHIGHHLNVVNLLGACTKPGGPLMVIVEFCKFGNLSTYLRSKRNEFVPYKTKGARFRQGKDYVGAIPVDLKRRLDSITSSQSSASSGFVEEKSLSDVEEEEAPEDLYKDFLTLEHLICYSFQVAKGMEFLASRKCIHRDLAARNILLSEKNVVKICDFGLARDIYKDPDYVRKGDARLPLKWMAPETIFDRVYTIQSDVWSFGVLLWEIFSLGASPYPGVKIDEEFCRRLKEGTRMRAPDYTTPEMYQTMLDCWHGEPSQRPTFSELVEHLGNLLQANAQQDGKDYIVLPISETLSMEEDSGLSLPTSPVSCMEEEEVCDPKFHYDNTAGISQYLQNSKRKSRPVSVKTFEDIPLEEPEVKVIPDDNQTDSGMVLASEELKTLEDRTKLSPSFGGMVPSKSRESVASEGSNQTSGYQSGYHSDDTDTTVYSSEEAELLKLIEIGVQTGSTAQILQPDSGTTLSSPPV
Sequence of Focal adhesion kinase 1 (Q05397 whole entry): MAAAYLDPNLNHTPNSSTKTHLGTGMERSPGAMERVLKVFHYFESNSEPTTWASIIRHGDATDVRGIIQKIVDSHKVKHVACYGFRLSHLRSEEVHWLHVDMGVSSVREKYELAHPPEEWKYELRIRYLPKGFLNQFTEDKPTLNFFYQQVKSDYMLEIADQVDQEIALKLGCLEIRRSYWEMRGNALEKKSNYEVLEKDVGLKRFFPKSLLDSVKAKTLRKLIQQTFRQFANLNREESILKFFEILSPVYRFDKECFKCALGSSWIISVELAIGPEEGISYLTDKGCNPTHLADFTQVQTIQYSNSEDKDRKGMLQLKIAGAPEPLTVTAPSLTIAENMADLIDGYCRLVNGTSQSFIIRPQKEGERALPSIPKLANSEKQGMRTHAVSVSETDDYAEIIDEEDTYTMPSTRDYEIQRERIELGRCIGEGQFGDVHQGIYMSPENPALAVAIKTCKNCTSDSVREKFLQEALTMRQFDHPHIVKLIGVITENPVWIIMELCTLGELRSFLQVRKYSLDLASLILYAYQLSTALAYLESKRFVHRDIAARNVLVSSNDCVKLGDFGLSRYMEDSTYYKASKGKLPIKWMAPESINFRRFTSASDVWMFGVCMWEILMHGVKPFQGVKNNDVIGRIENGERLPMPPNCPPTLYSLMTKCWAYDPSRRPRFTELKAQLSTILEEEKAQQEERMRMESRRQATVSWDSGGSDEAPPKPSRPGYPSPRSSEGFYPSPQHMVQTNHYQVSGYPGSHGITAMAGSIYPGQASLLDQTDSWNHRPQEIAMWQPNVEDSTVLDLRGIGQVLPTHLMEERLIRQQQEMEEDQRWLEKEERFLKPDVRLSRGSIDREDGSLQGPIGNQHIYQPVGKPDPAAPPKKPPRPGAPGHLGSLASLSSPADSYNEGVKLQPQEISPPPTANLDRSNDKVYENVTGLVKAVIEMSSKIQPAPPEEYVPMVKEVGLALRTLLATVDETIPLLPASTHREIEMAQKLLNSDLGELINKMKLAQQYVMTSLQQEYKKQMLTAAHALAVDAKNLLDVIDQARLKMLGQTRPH
Sequence of Mitogen-activated protein kinase 8 (P45983 whole entry): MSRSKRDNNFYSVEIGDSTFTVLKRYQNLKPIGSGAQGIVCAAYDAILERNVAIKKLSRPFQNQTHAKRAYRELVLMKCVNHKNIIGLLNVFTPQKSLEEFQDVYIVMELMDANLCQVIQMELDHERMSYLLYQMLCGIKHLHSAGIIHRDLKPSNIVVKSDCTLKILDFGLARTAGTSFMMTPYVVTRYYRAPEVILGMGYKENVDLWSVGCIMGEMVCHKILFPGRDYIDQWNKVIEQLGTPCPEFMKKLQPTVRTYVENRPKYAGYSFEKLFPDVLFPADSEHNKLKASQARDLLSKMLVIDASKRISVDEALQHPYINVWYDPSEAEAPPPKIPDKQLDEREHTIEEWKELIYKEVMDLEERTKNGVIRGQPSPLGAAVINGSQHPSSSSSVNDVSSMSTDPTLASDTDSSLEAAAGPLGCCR

| Compound | IC50 (Aurora kinase A) | IC50 (SW-620 [2]) | IC50 [3] | also measured |
| --- | --- | --- | --- | --- |
| COc1cc2c(Nc3ncc(CC(=O)Nc4cccc(F)c4)s3)ncnc2cc1OCCCN1CCC(COP(=O)(O)O)CC1 | – | – | – | solubility [1]: 10000 µg/mL (≈ 15.1 mM); T1/2 (Mus musculus): 0.7 h |
| COc1cc2c(Nc3ncc(CC(=O)Nc4cccc(F)c4F)s3)ncnc2cc1OCCCN1CCC[C@H]1CO | 2 nM | 1 nM | – | – |
| CCS(=O)(=O)Nc1ccc2c(c1)/C(=C(/Nc1ccc(CN3CCCCC3)cc1)c1ccccc1)C(=O)N2 [HESPERADIN] | – | – | – | IC50 (Aurora kinase B): 250 nM |
| C#CCN(CCO)CCCOc1cc2ncnc(Nc3ncc(CC(=O)Nc4cccc(F)c4)s3)c2cc1OC | < 1 nM | 20 nM | < 1 nM | – |
| COc1cc2c(Nc3ncc(CC(=O)Nc4cccc(F)c4)s3)ncnc2cc1OCCN1CCC(CCO)CC1 | < 1 nM | 19 nM | < 1 nM | – |
| CCN(CCO)CCCOc1cc2ncnc(Nc3ncc(CC(=O)Nc4cccc(F)c4)s3)c2cc1OC | < 1 nM | < 1 nM | < 1 nM | – |
| CCCCc1cnc(Nc2ncnc3cc(OCCCN4CCOCC4)c(OC)cc23)s1 | 6 nM | 1900 nM | 63 nM | – |
| COc1cc2c(Nc3nc(CC(=O)Nc4cccc(F)c4)cs3)ncnc2cc1OCCCN1CCOCC1 | 578 nM | 200 nM | 12 nM | – |
| COc1cc2c(Nc3ncc(CNC(=O)c4cccc(F)c4)s3)ncnc2cc1OCCCN1CCC(CO)CC1 | 111 nM | 2800 nM | 136 nM | – |
| COc1cc2c(Nc3ncc(CC(=O)NCCC(C)C)s3)ncnc2cc1OCCCN1CCOCC1 | 158 nM | 400 nM | 5 nM | – |
| COCCOc1cc2ncnc(Nc3ncc(CC(=O)Nc4cccc(F)c4)s3)c2cc1OC | 1 nM | 10 nM | 8 nM | – |
| COc1cc2c(Nc3ncc(CC(=O)Nc4cccc(F)c4)s3)ncnc2cc1OCCCN1CCC(CO)CC1 | – | 5 nM | 7 nM | solubility [4]: 35 µg/mL (≈ 0.0603 mM); half-life [5]: 5 h; IC50 [6]: 21000 nM; IC50 [7]: 1000 nM; IC50 [8]: > 100000 nM; IC50 [9]: 25000 nM; IC50 (SW-620 [10]): 2 nM; IC50 [11]: 62000 nM; IC50 (Focal adhesion kinase 1): 4000 nM; logD [12]: 3.2; IC50 [13]: > 100000 nM; fraction unbound [14]: 0.024; IC50 [15]: > 100000 nM; Vd [16]: 1.8 L/kg; clearance [17]: 16.6 mL/min/kg; IC50 [18]: 8000 nM; IC50 [19]: 3000 nM; IC50 [20]: 13000 nM |
| COc1cc2c(Nc3ncc(CC(=O)Nc4cccc(F)c4)s3)ncnc2cc1OCCCN1CCOCC1 | < 1 nM | < 1 nM | < 1 nM | – |
| COc1cc2c(Nc3ncc(Oc4cccc(F)c4)s3)ncnc2cc1OCCCN1CCC(CO)CC1 | – | 200 nM | < 1 nM | – |
| COc1cc2c(Nc3ncc(CNS(=O)(=O)c4cccc(F)c4)s3)ncnc2cc1OCCCN1CCC(CO)CC1 | 12 nM | 800 nM | 28 nM | – |
| COc1cc2c(Nc3nc(C(=O)Nc4ccc(F)cc4)c[nH]3)ncnc2cc1OCCCN1CCOCC1 | > 1000 nM | > 10000 nM | > 1000 nM | – |
| COc1cccc(NC(=O)Cc2cnc(Nc3ncnc4cc(OCCCN5CCC[C@H]5CO)c(OC)cc34)s2)c1 | 106 nM | 1000 nM | 5 nM | – |
| COc1cc2c(Nc3ncc(CC(=O)Nc4ccccc4C(N)=O)s3)ncnc2cc1OCCCN1CCC[C@H]1CO | 452 nM | > 10000 nM | 282 nM | – |
| COc1cc2c(Nc3ncc(SCc4cccc(F)c4)s3)ncnc2cc1OCCCN1CCC(CO)CC1 | < 1 nM | 400 nM | < 1 nM | – |
| CCN(C(=O)Cc1cnc(Nc2ncnc3cc(OCCCN4CCOCC4)c(OC)cc23)s1)c1ccccc1 | 55 nM | 2300 nM | 286 nM | – |
| COc1cc2c(Nc3ncc(CC(=O)Nc4cccc(F)c4)s3)ncnc2cc1OCCCN1CCN(C)CC1 | < 1 nM | 2 nM | < 1 nM | – |
| COc1cc2c(Nc3ncc(CC(=O)Nc4cccc(F)c4)o3)ncnc2cc1OCCCN1CCOCC1 | 472 nM | 1000 nM | 341 nM | – |
| COc1cc2c(Nc3ncc(CC(=O)Nc4cccc(F)c4)s3)ncnc2cc1OCCCNCCO | – | 80 nM | 1 nM | – |
| COc1cc2c(Nc3ncc(C(=O)Nc4ccc(F)cc4)s3)ncnc2cc1OCCCN1CCOCC1 | 1 nM | 600 nM | 49 nM | – |
| COc1cc2c(Nc3ncc(CC(=O)Nc4cccc(N(C)C)c4)s3)ncnc2cc1OCCCN1CCC[C@H]1CO | 483 nM | 600 nM | 48 nM | – |
| COc1cc2c(Nc3ncc(CC(=O)Nc4cccc(F)c4)s3)ncnc2cc1OCCCN1CCC[C@H]1CO | < 1 nM | 4 nM | < 1 nM | – |
| COc1cc2c(Nc3ncc(C)s3)ncnc2cc1OCCCN1CCOCC1 | 43 nM | 1100 nM | 133 nM | – |
